Some test systems named below: COLO 205 colon; HCT-116 colon; HL-60(TB) leukemia; HOP-92 NSCLC; HT29 colon; M14 melanoma; NCI-H226 lung; SF-539 CNS; SW-620 colon; UO-31 renal.
What all share (assay): inhibition of tumour cell growth, NCI panel, 48 h

The record followed here is PubChem BioAssay (NCI).

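Values below derive from 48-hour exposures of cells grown in 96-well plates, with endpoints linearly interpolated between the two concentrations bracketing the appropriate inhibition level. GI50 marks 50% less growth. The concentration for full growth arrest is given as TGI.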

For `C=C1C(=O)O[C@H]2[C@H]1CC/C(COC(=O)NCc1c[nH]c3ccccc13)=C\CC[C@@]1(C)O[C@@H]21`, the GI50 with COLO 205 colon is 1.81 µM; in the assay with HCT-116 colon, 1.53 µM; with HL-60(TB) leukemia, 1.54 µM; in the assay with HOP-92 NSCLC, 1.51 µM; with HT29 colon, 3.1 µM; in the assay with M14 melanoma, 1.91 µM. Also, the GI50 was 2 µM in the assay on NCI-H226 lung, 2.82 µM in the assay on SF-539 CNS, 1.7 µM with SW-620 colon and 1.34 µM with UO-31 renal. For the same molecule, the TGI in the assay on COLO 205 colon came to 3.58 µM; in the assay on HCT-116 colon it was 3.3 µM; in the assay on HL-60(TB) leukemia it was 4.22 µM; in the assay with HOP-92 NSCLC, 4.31 µM; with HT29 colon it was 9.69 µM; in the assay with M14 melanoma, 5 µM. For the same molecule, the TGI with NCI-H226 lung stood at 5.55 µM; in the assay with SF-539 CNS, 10.4 µM; in the assay on SW-620 colon it was 4.28 µM; in the assay on UO-31 renal, 2.68 µM.

With `O=C(/C=C/c1ccc(Cl)cc1)c1ccccc(=O)c1O`, the TGI in the assay with COLO 205 colon was 6.53 µM; with HCT-116 colon it was 10.4 µM; in the assay on HL-60(TB) leukemia, 2.04 µM; in the assay on HOP-92 NSCLC it was 17 µM; with HT29 colon, 10.8 µM; with M14 melanoma, 20.1 µM. Further, the TGI was 5.45 µM in the assay on NCI-H226 lung, 17.5 µM in the assay with SF-539 CNS, over 40 µM with SW-620 colon and over 100 µM in the assay on UO-31 renal.

For the molecule `NC(=NCc1ccccc1)C(N=Nc1ccccc1)C(=O)NCc1ccccc1` (stereo unspecified), the GI50 was 14.8 µM in the assay with COLO 205 colon; 1.76 µM in the assay with HCT-116 colon; 4.64 µM in the assay with HL-60(TB) leukemia; 1.78 µM with HOP-92 NSCLC; 5.71 µM in the assay on M14 melanoma; 21.3 µM in the assay with NCI-H226 lung. The GI50 was 16.6 µM in the assay with SF-539 CNS, 1.83 µM with SW-620 colon and 5.87 µM with UO-31 renal. For the same molecule, the TGI in the assay with COLO 205 colon turned out to be 37.2 µM; in the assay on HCT-116 colon, 3.47 µM; in the assay on HL-60(TB) leukemia, 27.4 µM; in the assay with HOP-92 NSCLC, 7.38 µM; in the assay on M14 melanoma, 22.3 µM; with NCI-H226 lung it was 52.6 µM. The TGI amounted to 37.1 µM with SF-539 CNS, 3.62 µM with SW-620 colon and 29.1 µM in the assay on UO-31 renal.

As for `COC(=O)c1ccc2c(c1)C(=O)c1c-2n(CCCCl)c(=O)c2cc([N+](=O)[O-])ccc12`, the GI50 in the assay on COLO 205 colon was over 100 µM; with HCT-116 colon it was 42.1 µM; in the assay with HL-60(TB) leukemia, over 100 µM; with HOP-92 NSCLC it was 23.6 µM; with HT29 colon, 76.8 µM; with M14 melanoma it was 82.5 µM. For the same molecule, the GI50 with NCI-H226 lung was over 100 µM; in the assay on SF-539 CNS, 83.6 µM; in the assay on SW-620 colon, 44.6 µM; with UO-31 renal, 49.1 µM. In addition, the TGI with COLO 205 colon was over 100 µM; in the assay on HCT-116 colon, over 100 µM; in the assay on HL-60(TB) leukemia it was over 100 µM; with HOP-92 NSCLC, 90.9 µM; in the assay with HT29 colon, over 100 µM; in the assay with M14 melanoma, over 100 µM. The TGI in the assay with NCI-H226 lung, in the assay with SF-539 CNS, with SW-620 colon and in the assay with UO-31 renal was over 100 µM in each case.

Take `COc1c(C)cc2c(C(C)C)c(O)c(O)c(C=O)c2c1O`: the TGI with COLO 205 colon was 36.3 µM; with HCT-116 colon it was 52 µM; in the assay on HL-60(TB) leukemia, 58.3 µM; in the assay with HOP-92 NSCLC, over 100 µM; in the assay with HT29 colon, 47.1 µM; in the assay with M14 melanoma it was 64.4 µM. Besides, the TGI in the assay on NCI-H226 lung is 57.2 µM; in the assay on SF-539 CNS, 37.6 µM; in the assay with SW-620 colon, over 100 µM; in the assay with UO-31 renal, over 100 µM.

As to `C[C@H]1/C(=C/C(=O)OCCN(C)C)CC[C@H]2[C@H]1C(=O)C[C@H]1C(C)(C)[C@@H](O)CC[C@]21C`, the TGI with COLO 205 colon, with HCT-116 colon, in the assay with HL-60(TB) leukemia, with HOP-92 NSCLC, in the assay with HT29 colon and in the assay on M14 melanoma was over 100 µM in each case. For the same molecule, the TGI with NCI-H226 lung, in the assay with SF-539 CNS, in the assay on SW-620 colon and in the assay on UO-31 renal was over 100 µM in each case.

`COc1cc(-c2nccc3cc(OC)c(OC)cc23)ccc1O`: the TGI in the assay on COLO 205 colon was over 100 µM; in the assay with HCT-116 colon, over 100 µM; in the assay with HL-60(TB) leukemia, 67.4 µM; with HOP-92 NSCLC it was over 100 µM; in the assay with HT29 colon, over 100 µM; in the assay on M14 melanoma, over 100 µM. The TGI in the assay on NCI-H226 lung, in the assay on SF-539 CNS, with SW-620 colon and in the assay with UO-31 renal was over 100 µM in each case.

As for `N#Cc1ccc(Cc2ccccn2)cc1Cl`, the TGI in the assay with COLO 205 colon, in the assay on HL-60(TB) leukemia, in the assay with HOP-92 NSCLC, in the assay with HT29 colon, in the assay with NCI-H226 lung and in the assay with SF-539 CNS was over 100 µM in each case. Further, the TGI with SW-620 colon and with UO-31 renal was over 100 µM each time.

`Nc1c(C(=O)Nc2ccccc2)sc2nc3c(cc12)CCCCC3`: the GI50 in the assay with HCT-116 colon was 0.46 µM; in the assay on HL-60(TB) leukemia, 0.319 µM; in the assay on HOP-92 NSCLC, 0.91 µM; with M14 melanoma, 0.278 µM; in the assay with NCI-H226 lung, 1.49 µM; with SF-539 CNS it was 0.307 µM. The GI50 in the assay on SW-620 colon was 0.443 µM; in the assay on UO-31 renal, 0.917 µM. Moreover, the TGI in the assay with HCT-116 colon is over 100 µM; in the assay on HL-60(TB) leukemia it was 1.85 µM; in the assay on HOP-92 NSCLC it was 18 µM; in the assay on M14 melanoma, 0.945 µM; in the assay with NCI-H226 lung, 24.7 µM; in the assay with SF-539 CNS, 12 µM. Further, the TGI in the assay on SW-620 colon and with UO-31 renal was over 100 µM each time.

`COc1cc2c3cc1Oc1c(OC)c(OC)cc4c1C(=NCC4)Cc1ccc(cc1)Oc1cc(ccc1O)C[C@H]3N(C)CC2`: the TGI is 26.3 µM with COLO 205 colon; 26.8 µM with HCT-116 colon; 96.5 µM in the assay on HL-60(TB) leukemia; 29.1 µM in the assay on HOP-92 NSCLC; 23.3 µM in the assay on HT29 colon; 29.8 µM with M14 melanoma. Besides, the TGI in the assay with NCI-H226 lung turned out to be 61.2 µM; with SF-539 CNS, 27.9 µM; in the assay on SW-620 colon it was 36.7 µM.
